Where two headings read alike, the source gives them in different places. Starred links: 1 amine or outer side, 2 acyl side, 3 side chain; linkers in the order of their positions; H or OH if unused. Positions of bridges follow the written chain, without caps; N, C: chain ends. Non-standard residues stand in square brackets, D forms with d. Residues, ends and D or L forms follow the SMILES beside them. Groups on a side chain read outwards from the residue. *: point of attachment. dPhe(4-NH2) = Nc1ccc(C[C@@H](N)C(=O)O)cc1; Phe(4-NH2) = Nc1ccc(C[C@H](N)C(=O)O)cc1; NH(2-Me-phenyl) = Cc1ccccc1N*; Phg = N[C@H](C(=O)O)c1ccccc1; d(β3hA) = C[C@@H](N)CC(=O)O; CO = O=C([*:1])[*:2]; NHPr = CCCN*
Columns and labels:
[1] = target: T1, α4β1 integrin (Homo sapiens, UniProt P05556+P13612); test: Jurkat E6.1 cell adhesion to VCAM-1; conditions: agonist = adhesion index >1, antagonist = adhesion index <1
Method: (§1) Cells were seeded in 96-well plates coated with the specific natural human recombinant ligands (Table 1) and allowed to adhere in the presence of increasing concentrations (10^–10 to 10^–4 M) of the synthesized CPPs before the determination of the number of adherent cells (as described in Experimental Section).
(§2) For adhesion assays on Jurkat E6.1, RPMI8866, or HL60 cells, black 96-well plates were coated overnight at 4 °C with VCAM-1 or ICAM-1 or MAdCAM-1 (5 μg/mL) or Fg (10 μg/mL). The cells were counted, stained with CellTracker green CMFDA (12.5 μM, 30 min at 37 °C, Life Technologies), and after three washes, were preincubated with increasing concentrations of new CPP (10^–10 to 10^–4 M) or with the vehicle (methanol) for 30 min at 37 °C. Then cells were plated (500 000/well) on coated wells and incubated for 30 min at 37 °C. After three washes, adhered cells were lysed with 0.5% Triton X-100 in PBS (30 min at 4 °C) and fluorescence was measured (Ex485 nm/Em535 nm) in an EnSpire Multimode Plate Reader (PerkinElmer, Waltham, MA). For adhesion assays mediated by α5β1 integrin, 96-well plates were coated by passive adsorption with FN (10 μg/mL) overnight at 4 °C. K562 cells were counted and preincubated with various concentrations of the peptides or with the vehicle (methanol) for 30 min at RT. Afterward, the cells were plated (50 000 cells/well) and incubated at RT for 1 h. The wells were then washed with 1% BSA in PBS (phosphate-buffered saline) to take off nonadherent cells, and 50 μL of hexosaminidase substrate was added; after addition of 100 μL of stopping solution, the plates were read at 405 nm. In both types of adhesion assay, the number of adherent cells was determined by comparison with a standard curve made in the same plate. Experiments were carried out in quadruplicate and repeated at least three times.
(§3) Jurkat E6.1 (expressing α4β1 and αLβ2 integrin), K562 (expressing α5β1 integrin) and HL60 (expressing αMβ2 integrin) cell lines were purchased from ATCC (Rockville, MD, USA); these cells were routinely cultured in RPMI-1640 (Life Technologies) supplemented with glutamine and 10% FBS.
(§4) Cells were grown at 37 °C under 5% CO2 humidified atmosphere.

[2] = target: T1, α4β1 integrin; test: Jurkat E6.1 cell adhesion to FN; conditions: for agonist or antagonist behaviour, FN/Jurkat E6.1 α4β1: agonist = adhesion index >1, antagonist = adhesion index <1
Method: as §1, §2, §3, §4

[3] = system: ERK1/2 phosphorylation mediated by α4β1 integrin; test: ERK1/2 phosphorylation in Jurkat E6.1 cells (Western blot); type: cell-based; conditions: compound 10^–7 to 10^–9 M, no FN, vs vehicle
Method: Intracellular signaling generated by the interaction of ECM components with α4β1 integrin produces an increase in the phosphorylation of cytoplasmatic second messengers such as ERK1/2 that contribute to α4 integrin-mediated cell functions.
Western blot analysis was performed as previously described, with the following modifications. […] On the other hand, after 1 h incubation with integrin antagonists, the cells were then seeded on FN (10 μg/mL) coated plates for 1 h. Integrin agonists were not incubated with FN. At the end of the incubation time, Jurkat E6.1 cells were lysed on ice using a mammalian protein extraction reagent (M-PER; Pierce, Rockford, IL) supplemented with a phosphatase inhibitor cocktail. Protein extracts were quantified using a BCA protein assay kit (Pierce), separated by 12% SDS-PAGE gel, transferred onto nitrocellulose membranes, and immunoblotted with anti-phospho-ERK1/2 (1:1000) (Cell Signaling Technology, Danvers, MA) or anti-total ERK1/2 antibodies (1:2500) (Cell Signaling Technology). Protocols for digital image acquisition and analysis have been previously described.[73] Densitometric analysis of the bands is reported (mean ± SD; n = 3); the amount of phosphorylated ERK1/2 (pERK1/2) is normalized to that of total ERK1/2 (totERK1/2). Experiments were replicated independently at least three times. Statistical analyses were performed using one-way ANOVA and the post hoc Newman–Keuls test.

[4] = amide bond, 16-membered ring, HBTU/HOBt/DIPEA, DMF, 25.0 °C

T1 sequence (P13612 34-1032): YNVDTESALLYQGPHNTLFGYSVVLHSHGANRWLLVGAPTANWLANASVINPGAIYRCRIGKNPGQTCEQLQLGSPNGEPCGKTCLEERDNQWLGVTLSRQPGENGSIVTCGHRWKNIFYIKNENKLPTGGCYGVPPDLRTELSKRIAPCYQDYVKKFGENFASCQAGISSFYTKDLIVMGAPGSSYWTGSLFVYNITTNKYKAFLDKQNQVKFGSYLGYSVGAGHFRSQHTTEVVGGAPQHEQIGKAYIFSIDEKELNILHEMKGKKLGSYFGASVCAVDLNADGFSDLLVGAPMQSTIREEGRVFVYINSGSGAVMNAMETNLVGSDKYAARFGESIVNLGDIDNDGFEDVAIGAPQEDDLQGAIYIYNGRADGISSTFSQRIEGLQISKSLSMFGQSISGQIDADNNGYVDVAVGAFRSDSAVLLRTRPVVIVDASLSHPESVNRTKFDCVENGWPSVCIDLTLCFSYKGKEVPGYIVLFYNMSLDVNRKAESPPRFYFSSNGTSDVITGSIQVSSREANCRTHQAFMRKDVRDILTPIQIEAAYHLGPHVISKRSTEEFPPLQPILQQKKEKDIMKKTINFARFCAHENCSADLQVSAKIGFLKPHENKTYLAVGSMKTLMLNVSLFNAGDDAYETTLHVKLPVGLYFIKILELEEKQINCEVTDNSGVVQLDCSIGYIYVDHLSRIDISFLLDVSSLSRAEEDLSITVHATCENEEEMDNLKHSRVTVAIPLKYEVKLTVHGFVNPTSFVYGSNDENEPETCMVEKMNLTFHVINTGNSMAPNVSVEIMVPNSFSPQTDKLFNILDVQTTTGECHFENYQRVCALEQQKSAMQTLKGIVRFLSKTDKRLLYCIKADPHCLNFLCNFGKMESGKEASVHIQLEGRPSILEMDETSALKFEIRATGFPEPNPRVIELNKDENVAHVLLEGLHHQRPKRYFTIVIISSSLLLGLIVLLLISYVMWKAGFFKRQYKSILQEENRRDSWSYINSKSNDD
T1 sequence (P05556 21-798): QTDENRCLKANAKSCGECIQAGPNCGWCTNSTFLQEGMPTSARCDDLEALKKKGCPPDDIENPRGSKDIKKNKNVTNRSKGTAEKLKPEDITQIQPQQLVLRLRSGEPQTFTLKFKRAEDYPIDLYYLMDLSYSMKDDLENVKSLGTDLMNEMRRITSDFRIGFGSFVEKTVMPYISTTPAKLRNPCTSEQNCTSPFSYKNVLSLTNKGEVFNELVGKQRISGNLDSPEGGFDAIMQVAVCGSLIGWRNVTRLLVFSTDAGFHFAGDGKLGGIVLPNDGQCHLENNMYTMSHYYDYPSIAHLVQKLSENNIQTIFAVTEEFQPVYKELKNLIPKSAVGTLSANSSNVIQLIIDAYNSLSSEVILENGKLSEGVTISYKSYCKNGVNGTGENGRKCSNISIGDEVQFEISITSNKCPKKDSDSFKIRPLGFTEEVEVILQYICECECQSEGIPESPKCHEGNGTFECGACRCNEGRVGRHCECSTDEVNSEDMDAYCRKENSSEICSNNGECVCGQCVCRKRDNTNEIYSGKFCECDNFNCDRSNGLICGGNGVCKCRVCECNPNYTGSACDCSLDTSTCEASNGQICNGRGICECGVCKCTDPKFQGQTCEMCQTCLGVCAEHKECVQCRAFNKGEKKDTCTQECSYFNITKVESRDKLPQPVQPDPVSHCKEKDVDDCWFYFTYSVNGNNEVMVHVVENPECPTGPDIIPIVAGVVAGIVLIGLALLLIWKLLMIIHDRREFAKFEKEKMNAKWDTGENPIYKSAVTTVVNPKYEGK

Cc1ccccc1NC(=O)Nc1ccc(C[C@H]2NC(=O)C[C@H](C(=O)O)NC(=O)[C@H](C(C)C)NC(=O)[C@H](CC(=O)O)NC(=O)[C@H](CC(C)C)NC2=O)cc1 [3d, c[(R)-Phu-Leu-Asp-Val-(R)-isoAsp]] ([dPhe(4-NH2)]([CO-NH(2-Me-phenyl)])LDV[dD]-OH; lactam N-5 (inferred))
agonist or antagonist behaviour, VCAM-1/Jurkat E6.1 α4β1 [1]: agonist
agonist or antagonist behaviour, FN/Jurkat E6.1 α4β1 [2]: agonist
effect on ERK1/2 phosphorylation, compound administered alone [3]: significant concentration-dependent increase of ERK1/2 phosphorylation

Cc1ccccc1NC(=O)Nc1ccc(C[C@@H]2NC(=O)C[C@@H](C)NC(=O)[C@H](C(C)C)NC(=O)[C@H](CC(=O)O)NC(=O)[C@H](CC(C)C)NC2=O)cc1 [11a, c[(S)-Phu-Leu-Asp-Val-(R)-β^3homoAla]] (cyclo([Phe(4-NH2)]([CO-NH(2-Me-phenyl)])LDV[d(β3hA)]))
IC50 [2]: > 5 µM

Cc1ccccc1NC(=O)Nc1ccc(C[C@H]2NC(=O)C[C@@H](C(=O)O)NC(=O)[C@H](C(C)C)NC(=O)[C@H](C)NC(=O)[C@H](CC(C)C)NC2=O)cc1 [12c, c[(R)-Phu-Leu-Ala-Val-(S)-isoAsp]] ([dPhe(4-NH2)]([CO-NH(2-Me-phenyl)])LAVD-OH; lactam N-5 (inferred))
agonist or antagonist behaviour, FN/Jurkat E6.1 α4β1 [2]: agonist

Cc1ccccc1NC(=O)Nc1ccc(C[C@@H]2NC(=O)C[C@@H](C(=O)OCc3ccccc3)NC(=O)[C@H](C(C)C)NC(=O)[C@H](CC(=O)OCc3ccccc3)NC(=O)[C@H](CC(C)C)NC2=O)cc1 [H-Asp(OBn)-Val-isoAsp(OBn)-Phu-Leu-OH?]
ring closure, yield after HPLC ([4]; from H-Asp(OBn)-Val-isoAsp(OBn)-Phu-Leu-OH?): 0%

Cc1ccccc1NC(=O)Nc1ccc(C[C@@H]2NC(=O)C[C@@H](C(=O)OCc3ccccc3)NC(=O)[C@H](C(C)C)NC(=O)[C@H](C)NC(=O)[C@H](CC(C)C)NC2=O)cc1 [H-Phu-Leu-Ala-Val-isoAsp(OBn)-OH]
ring closure, yield after HPLC ([4]; from H-Phu-Leu-Ala-Val-isoAsp(OBn)-OH): 37%

Cc1ccccc1NC(=O)Nc1ccc(C[C@@H]2NC(=O)C[C@@H](C)NC(=O)[C@H](C(C)C)NC(=O)[C@H](CC(=O)OCc3ccccc3)NC(=O)[C@H](CC(C)C)NC2=O)cc1 [H-Phu-Leu-Asp(OBn)-Val-(R)-β3homoAla-OH]
ring closure, yield after HPLC ([4]; from H-Phu-Leu-Asp(OBn)-Val-(R)-β3homoAla-OH): 50%

Cc1ccccc1NC(=O)Nc1ccc(C[C@@H]2NC(=O)C[C@H](C(=O)OCc3ccccc3)NC(=O)[C@H](C(C)C)NC(=O)[C@H](CC(=O)OCc3ccccc3)NC(=O)[C@H](CC(C)C)NC2=O)cc1 [H-Phu-Leu-Asp(OBn)-Val-disoAsp(OBn)-OH]
ring closure, yield after HPLC ([4]; from H-Phu-Leu-Asp(OBn)-Val-disoAsp(OBn)-OH): 19%

CCCNC(=O)[C@@H]1CC(=O)N[C@@H](Cc2ccc(NC(=O)Nc3ccccc3C)cc2)C(=O)N[C@@H](CC(C)C)C(=O)N[C@@H](CC(=O)OCc2ccccc2)C(=O)N[C@@H](C(C)C)C(=O)N1 [H-Phu-Leu-Asp(OBn)-Val-isoAsp(NHPr)-OH?]
ring closure, yield after HPLC ([4]; from H-Phu-Leu-Asp(OBn)-Val-isoAsp(NHPr)-OH?): 27%

Cc1ccccc1NC(=O)Nc1ccc(C[C@@H]2NC(=O)C[C@@H](C(=O)OCc3ccccc3)NC(=O)[C@H](C(C)C)NC(=O)[C@H](CC(=O)OCc3ccccc3)NC(=O)[C@H](CC(C)C)NC2=O)cc1 [H-Phu-Leu-Asp(OBn)-Val-isoAsp(OBn)-OH]
ring closure, yield after HPLC ([4]; from H-Phu-Leu-Asp(OBn)-Val-isoAsp(OBn)-OH): 28%

Cc1ccccc1NC(=O)Nc1ccc(C[C@@H]2NC(=O)C[C@@H](C(=O)OCc3ccccc3)NC(=O)[C@H](C(C)C)NC(=O)[C@H](C)NC(=O)[C@H](Cc3ccccc3)NC2=O)cc1 [H-Phu-Phe-Ala-Val-isoAsp(OBn)-OH]
ring closure, yield after HPLC ([4]; from H-Phu-Phe-Ala-Val-isoAsp(OBn)-OH): 48%

Cc1ccccc1NC(=O)Nc1ccc(C[C@@H]2NC(=O)C[C@@H](C(=O)OCc3ccccc3)NC(=O)[C@H](C(C)C)NC(=O)[C@H](CC(=O)OCc3ccccc3)NC(=O)[C@H](Cc3ccccc3)NC2=O)cc1 [H-Phu-Phe-Asp(OBn)-Val-isoAsp(OBn)-OH]
ring closure, yield after HPLC ([4]; from H-Phu-Phe-Asp(OBn)-Val-isoAsp(OBn)-OH): 25%

Cc1ccccc1NC(=O)Nc1ccc(C[C@H]2NC(=O)C[C@@H](C(=O)OCc3ccccc3)NC(=O)[C@H](C(C)C)NC(=O)[C@H](C)NC(=O)[C@H](CC(C)C)NC2=O)cc1 [H-dPhu-Leu-Ala-Val-isoAsp(OBn)-OH]
ring closure, yield after HPLC ([4]; from H-dPhu-Leu-Ala-Val-isoAsp(OBn)-OH): 15%

Cc1ccccc1NC(=O)Nc1ccc(C[C@H]2NC(=O)C[C@@H](C(=O)OCc3ccccc3)NC(=O)[C@H](c3ccccc3)NC(=O)[C@H](CC(=O)OCc3ccccc3)NC(=O)[C@H](CC(C)C)NC2=O)cc1 [H-dPhu-Leu-Asp(OBn)-Phg-isoAsp(OBn)-OH?]
ring closure, yield after HPLC ([4]; from H-dPhu-Leu-Asp(OBn)-Phg-isoAsp(OBn)-OH?): 43%

Cc1ccccc1NC(=O)Nc1ccc(C[C@H]2NC(=O)C[C@@H](C)NC(=O)[C@H](C(C)C)NC(=O)[C@H](CC(=O)OCc3ccccc3)NC(=O)[C@H](CC(C)C)NC2=O)cc1 [H-dPhu-Leu-Asp(OBn)-Val-(R)-β3homoAla-OH]
ring closure, yield after HPLC ([4]; from H-dPhu-Leu-Asp(OBn)-Val-(R)-β3homoAla-OH): 33%

Cc1ccccc1NC(=O)Nc1ccc(C[C@H]2NC(=O)C[C@H](C(=O)OCc3ccccc3)NC(=O)[C@H](C(C)C)NC(=O)[C@H](CC(=O)OCc3ccccc3)NC(=O)[C@H](CC(C)C)NC2=O)cc1 [H-dPhu-Leu-Asp(OBn)-Val-disoAsp(OBn)-OH]
ring closure, yield after HPLC ([4]; from H-dPhu-Leu-Asp(OBn)-Val-disoAsp(OBn)-OH): 34%

Cc1ccccc1NC(=O)Nc1ccc(C[C@H]2NC(=O)C[C@@H](C(=O)OCc3ccccc3)NC(=O)[C@H](C(C)C)NC(=O)[C@H](CC(=O)OCc3ccccc3)NC(=O)[C@H](CC(C)C)NC2=O)cc1 [H-dPhu-Leu-Asp(OBn)-Val-isoAsp(OBn)-OH]
ring closure, yield after HPLC ([4]; from H-dPhu-Leu-Asp(OBn)-Val-isoAsp(OBn)-OH): 29%

Cc1ccccc1NC(=O)Nc1ccc(C[C@@H]2NC(=O)C[C@@H](C(=O)OCc3ccccc3)NC(=O)[C@H](C(C)C)NC(=O)[C@H](CC(=O)OCc3ccccc3)NC(=O)[C@H](CC(C)C)NC2=O)cc1 [H-isoAsp(OBn)-Phu-Leu-Asp(OBn)-Val-OH]
ring closure, yield after HPLC ([4]; from H-isoAsp(OBn)-Phu-Leu-Asp(OBn)-Val-OH): 0%

CCCNC(=O)[C@@H]1CC(=O)N[C@@H](Cc2ccc(NC(=O)Nc3ccccc3C)cc2)C(=O)N[C@@H](CC(C)C)C(=O)N[C@@H](CC(=O)O)C(=O)N[C@@H](C(C)C)C(=O)N1 [compound 13, c[(S)-PhU-Leu-Asp-Val-(S)-isoAsp(nPr)]] ([Phe(4-NH2)]([CO-NH(2-Me-phenyl)])LDVD-NHPr; lactam N-5 (inferred))
IC50 [2]: > 5 µM
agonist or antagonist behaviour, FN/Jurkat E6.1 α4β1 [2]: complete loss of activity

Cc1ccccc1NC(=O)Nc1ccc(C[C@@H]2NC(=O)C[C@@H](C(=O)O)NC(=O)[C@H](C(C)C)NC(=O)[C@H](CC(=O)O)NC(=O)[C@H](Cc3ccccc3)NC2=O)cc1 [compound 14, c[(S)-Phu-Phe-Asp-Val-(S)-isoAsp]] ([Phe(4-NH2)]([CO-NH(2-Me-phenyl)])FDVD-OH; lactam N-5)
IC50 [2]: > 5 µM

Cc1ccccc1NC(=O)Nc1ccc(C[C@H]2NC(=O)C[C@@H](C(=O)O)NC(=O)[C@H](c3ccccc3)NC(=O)[C@H](CC(=O)O)NC(=O)[C@H](CC(C)C)NC2=O)cc1 [compound 16, c[(R)-Phu-Leu-Asp-Phg-(S)-isoAsp]] ([dPhe(4-NH2)]([CO-NH(2-Me-phenyl)])LD[Phg]D-OH; lactam N-5)
IC50 [2]: > 5 µM

— PMC10108353, “Design and Pharmacological Characterization of α4β1 Integrin Cyclopeptide Agonists: Computational Investigation of Ligand Determinants for Agonism versus Antagonism” (Journal of Medicinal Chemistry, 2023)
